# According to patent US20090291915A1, “Silicon Compounds and Their Use” (priority 2001, published 2009):
compound,measurement,value
COc1nc(NCCCN2CCOCC2)nc(OC)c1NC(=O)c1ccc(Oc2cncc([Si](C)(C)C)c2)o1,melting point,80 to 82 °C
